Entries after “also recorded” stand apart in the source; their conditions may differ.
Assay: Solubility of neat fluorescent dye in water-based PVA/PAA binder solution
Conditions: 0.5 wt % fluorescent dye in binder solution (PVA, PAA, ethylene glycol, ethylene glycol butyl ether, water), stirred at 50-70° C.
Method: To determine whether neat dyes (e.g., unencapsulated) could be incorporated into binder solutions, various fluorescent materials were added to a binder solution including 1-7 wt % PVA, 0.5-3 wt % PAA, 2-6 wt % ethylene glycol, 4-10 wt % ethylene glycol butyl ether, and the balance water to form Samples F-H, and Comparative Samples 1-5. In particular, from 0.2-0.5 wt % of the fluorescent material (DayGlo, UMCCorp, Aldrich) was added to the binder solution and stirred on a hot plate at 50-70° C. to dissolve the dye into the binder solution.

Structure (SMILES)	Solubility at 0.5 wt %	Solubility at 0.5 wt % (listed as Sample H)
CCCN(CCO)c1nc(Nc2ccccc2)nc(Nc2ccc(/C=C/c3ccc(Nc4nc(Nc5ccccc5)nc(N(CCO)CCO)n4)cc3S(=O)(=O)[O-])c(S(=O)(=O)[O-])c2)n1.[Na+].[Na+] [FB 28]	Partially soluble −	–
O=S(=O)([O-])c1cc(Nc2nc(CCO)nc(Nc3ccccc3)n2)ccc1/C=C/c1ccc(Nc2nc(NCO)nc(Nc3ccccc3)n2)cc1S(=O)(=O)[O-].[Na+].[Na+] [FB 85]	Partially soluble −	–
CCCN(CCC)c1nc(Nc2ccccc2)nc(Nc2ccc(/C=C/c3ccc(Cc4nc(Cc5ccccc5)nc(N(OCC)OCC)n4)cc3S(=O)(=O)[O-])c(S(=O)(=O)[O-])c2)n1.[Na+].[Na+] [FB 113]	Partially soluble −	–
O=S(=O)([O-])c1ccccc1C=Cc1ccc(-c2ccc(C=Cc3ccccc3S(=O)(=O)[O-])cc2)cc1.[Na+].[Na+] [FB 351]	Soluble	fully soluble; also recorded: good solubility

Reference: patent US11673323B2, “Fluorescent binders for use in monitoring additive manufacturing processes” (General Electric Company, priority 2020, dated 2023)
